Four compounds from patent US20190328721A1, “METHOD OF ACTIVATING DENDRITIC CELLS” (KOREA INSTITUTE OF SCIENCE AND TECHNOLOGY, priority 2018, published 2019) can be followed below.

The test system of assay [1] is dendritic cells. Nature of the assay: Flow cytometry of dendritic cells from B16F10-Ova-bearing mice (maturation, subsets, cross presentation). It is filed as in vivo. Conditions: tumor-draining lymph nodes. How it is done:
To confirm the effect of the ROCK inhibitor Y27632 on the maturation process of dendritic cells, the inventors administered Y27362 to B16F10-Ova-bearing cancer model animals according to the same administration schedule as in Example 2-1, and the expression of CD40 and CD86, which are dendritic cell maturation markers, was analyzed by flow cytometry.
Recently, it has been shown that CD103 (corresponding to CD141 in humans)-positive dendritic cells (CD103 DC) play an important role in cancer cell phagocytosis and T cell anticancer immunity among dendritic cells (Broz et al., Cancer Cell, 26 (5): 638-652, 2014). Therefore, in order to analyze the effect of the ROCK inhibitor on CD103 DC, Y27632 was administered to B16F10-Ova-bearing cancer model mice according to the administration schedule described in the above Example 2-1, tumor tissues and tumor-draining lymph nodes were excised, and then flow cytometry analysis was performed using antibodies specifically binding to dendritic cell markers (CD11b, CD103 and CD8). It was confirmed that the ratio of CD103 DC was increased by Y27632 in both the tumor-draining lymph nodes (FIG. 15A) and the tumor tissues (FIG. 15B). On the other hand, in the case of CD11b-positive and CD8-positive dendritic cells, no change due to administration of Y27632 was observed.
The present inventors analyzed cross presentation activity which is one of functions of dendritic cells via flow cytometry analysis using an antibody capable of detecting a cancer antigen (H-2K^b-Ova) capable of activating T cells, through flow cytometry analysis using an antibody (H-2K^b monoclonal antibody, Invitrogen, USA). It was confirmed that the cross presentation of CD103 DC was increased by Y27632 in both tumor-draining lymph nodes (FIG. 15C) and tumor tissues (FIG. 15D).
Further, the present inventors analyzed CD40, which is one of the markers of dendritic cell function capable of activating T cells and a DC maturation marker of dendritic cells, by flow cytometry analysis using anti-CD40 antibodies. As shown in FIGS. 15E and 15F, it was confirmed that the maturation of CD103 DC was increased by Y27632 in the tumor-draining lymph nodes.
The present inventors analyzed a series of immunological induction processes occurring after the phagocytosis against cancer cells or cancer-specific antigens in order to analyze the mechanism of the combination therapy for the anti-cancer immune response. Specifically, in order to confirm the effect of the combination therapy on the dendritic cell maturation, Y27632 and doxorubicin were administered to B16F10-Ova-bearing cancer model mice as described above, and then tumor-draining lymph nodes were isolated and the expression of CD40 and CD86, which are dendritic cell maturation markers, was analyzed by flow cytometry analysis.
Further, in order to confirm the effect of the combined treatment on the cross presentation process to the dendritic cells, the present inventors administered Y27632 and doxorubicin to B16F10-Ova-bearing cancer model mice as described above, isolated the tumor-draining lymph nodes, and then cross presentation activity, which is one of functions of dendritic cells, was analyzed via flow cytometry analysis using an antibody capable of detect a cancer antigen (H-2K^b-Ova) capable of activating T cells, through flow cytometry analysis using an antibody (H-2K^b monoclonal antibody, Invitrogen, USA).
The present inventors then investigated the effect of the combination of the drugs on the maturation process of dendritic cells. Specifically, the tumor-draining lymph nodes were isolated after administration of Y27632 and/or cisplatin in the B16F10-Ova-bearing cancer model, and the expression level of CD40 and CD86, the dendritic cell maturation markers, was analyzed by flow cytometry. As shown in FIG. 19C and 19D, there was no influence on the maturation of dendritic cells when Y27632 alone, cisplatin alone, or the combination of the two were administered (FIGS. 19C and 19D). […]
In general terms: A flow cytometer gives signals particle by particle.

Assay [2] concerns bone marrow-derived dendritic cells (BMDC). The assay can be described thus: Cross presentation of H-2Kb-Ova by BMDCs in vitro. In kind it is cell-based, mice. The conditions noted are these: Y27632 30 μM, 1 hour on BMDCs; cancer cells doxorubicin treated or untreated. How it is done: Furthermore, the inventors investigated whether the cross presentation of dendritic cells was promoted by the combination treatment of doxorubicin and Y27632. To this end, the present inventors used 30 μM of Y27632 to pretreat bone marrow-derived dendritic cells (BMDC) stained with CellTracker CMFDA (Thermo Fisher Scientific, USA) for 1 hour, followed by treatment with doxorubicin treated B16F10-Ova cells or doxorubicin untreated B16F10-Ova cells. After the co-culture, floating cancer cells were removed by withdrawing supernatant. Cross presentation activity, which is one of functions of dendritic cells, was analyzed via flow cytometry analysis using an antibody capable of detect a cancer antigen (H-2K^b-Ova) capable of activating T cells, through flow cytometry analysis using an antibody (H-2K^b monoclonal antibody, Invitrogen, USA).

For assay [3], the system named is B16F10-Ova. The assay can be described thus: B16F10-Ova tumor model, Y27632 combined with a chemotherapeutic. In kind it is in vivo, mice. Conditions: doxorubicin 5 mg/kg, Y27632 10 mg/kg. As for the experimental part:
Specifically, tumor suppression was examined by administering 5 mg/kg of doxorubicin and 10 mg/kg of Y27632 alone or in combination to B16F10-Ova-bearing tumor model mice prepared as in Example 2-1. Doxorubicin was administered three times at intervals of 3 days from the 8th day after the injection of cancer cells, and Y27632 was administered at a dose of 10 mg/kg continuously for two consecutive days via intravenous injection followed by a day of rest as a cycle, followed by 3 cycles of 3-day intervals (FIG. 18A). The mice were sacrificed on the 20th day after the injection of cancer cells, the tumor tissue was excised, and ex vivo images were taken and the tumor tissues were weighed. Before the sacrifice of the mice, the tumor volumes over time were calculated as described above using calipers at intervals of 3 days from the 8th day after the injection of the cancer cells.
In order to confirm whether CD8^+ T cells infiltrates into tumor tissues, tumor tissues excised from an experimental animal were sectioned and subjected to fluorescence immunohistochemistry using anti-CD8 antibodies.
First, to determine the cisplatin therapeutic concentration, a B16F10-Ova tumor model was constructed in a nude mouse lacking T cell immunity and then an experiment was conducted to confirm the concentration of cisplatin having an anticancer effect similar to that of doxorubicin at 5 mg/kg. […] Thus, in order to evaluate the therapeutic effect of cisplatin and the ROCK inhibitor Y27632 in the B16F10-Ova-bearing tumor model, 3 mg/kg of cisplatin was administered according to the administration schedule shown in FIG. 18A.

Assay [4] concerns MMTV/Neu mice tumors. The assay can be described thus: Spontaneous cancer development model. In kind it is in vivo. Conditions: anti-CD8 fluorescence immunohistochemistry. How it is done:
The survival rate was recorded over up to 100 days. When the size of tumor was over 2,500 mm^3, the animal was euthanized (FIG. 20C).
Specifically, fluorescence immunohistochemical analysis was performed using anti-CD8 antibodies in the cancer tissues after the end of the experiment.
Accordingly, the present inventors investigated whether the combination of the drugs can increase the anti-cancer immunity even in the spontaneous cancer development model. […] After completion of the experiment, the present inventors isolated the spleen cells and treated with peptide against rat-Neu, an antigen expressed in the cancer of the spontaneous cancer development model, and after 48 hours, the culture supernatant was collected and IFN-γ was quantified using an ELISA kit (R&D Systems, Inc, USA).

The subject of assay [5] is bone marrow-derived macrophages (BMDMs). Nature of the assay: Phagocytosis of cancer cells by bone marrow-derived macrophages in vitro. In kind it is cell-based, mice. How it is done:
(§1) Specifically, the present inventors prepared bone marrow-derived macrophages (BMDMs) differentiated from excised bone marrow of mice using M-CSF and bone marrow-derived dendritic cells (BMDCs) differentiated from excised bone marrow using Flt3L. The degree of differentiation was confirmed by flow cytometry analysis using antibodies specifically binding to F4/80 (BMDM marker) and CD11c (BMDC marker), respectively (FIGS. 2A and 2B).
(§2) The prepared BMDMs and BMDCs were stained with 1 μM CellTracker Deep Red (Thermo Fisher Scientific, USA). 30 μM of Y27632 (Abcam, USA) or 30 μM of fasudil (Selleck Chemicals, USA) was added to each of 15×10^4 cells/ml of the stained macrophages and dendritic cells and incubated at 37° C. for 1 hour. As a negative control, macrophages or dendritic cells that were not incubated with Y27632 and fasudil were used.
(§3) Bone marrow-derived macrophages or dendritic cells prepared in RPMI medium and cancer cell lines stained with 1 μM CellTracker CMFDA (Thermo Fisher Scientific, USA) were co-cultured at about 37° C. for about 2 hours. CT26.CL25, a colon cancer cell line, and B16F10-OVA, a melanoma cell line, were used as the cancer cells.
(§4) Thereafter, the percentage of cancer cells was measured by flow cytometry, and the phagocytosis ratio of macrophages and dendritic cells against cancer cells was calculated. The results are shown in FIGS. 2C to 2F (left: cancer cell line CT26.CL25, right: cancer cell line B16F10-OVA).
(§5) In order to more accurately analyze the phagocytosis of macrophages and dendritic cells against cancer cells according to the treatment of the ROCK inhibitor, the present inventors analyzed phagocytosis of the BMDMs and BMDCs against CT26.CL25 colon cancer cells using the pHrodo-SE dye, which changes in fluorescence depending on pH. When […], the pH of the cancer cells decreased and became red. When treated with Y27632 as described above for the above-mentioned phagocytosis response, the phagocytic activities of both the BMDMs and BMDCs against cancer cells were improved.
(§6) The present inventors performed an experiment to confirm how long the phagocytosis of BMDMs and BMDCs against cancer cells due to the ROCK inhibitor is maintained. Specifically, BMDMs and BMDCs were pretreated with Y27632 for 1 hour, then Y27632 was removed, and immediately after 30 minutes, 1 hour, 2 hours, or 4 hours, the phagocytosis against CT26.CL25 and B16F10-Ova was measured using a flow cytometer. The other experimental conditions were the same as in Example 1-1.
In order to confirm whether the ROCK inhibitor increases phagocytosis against cancer cells by acting on phagocytic cells (BMDMs or BMDCs) themselves, Y27632 was used to pretreat the phagocytic cells or cancer cells for 1 hour, and the phagocytic activity was analyzed using the same procedure described in Example 1-1.
The present inventors identified through the above-mentioned results that Y27632 promotes phagocytic cells against cancer cells by inhibiting ROCK in the phagocytic cells. In order to elucidate a more detailed mechanism related to the increase of phagocytic activity by ROCK inhibitors, the present inventors analyzed phagocytosis of the phagocytic cells against cancer cells using blebbistatin (Sigma-Aldrich, USA), which can inhibit the movement of myosin light chain, which exist downstream of ROCK signaling pathway, according to the method described in Example 1-1.
Bone marrow-derived macrophages (BMDMs) treated with 30 μM of fasudil were co-cultured with B16F10-Ova malignant melanoma cells for 1 hour and the phagocytic activity of the BMDMs against apoptotic cancer cells was analyzed by flow cytometry analysis. In order to induce immunogenic apoptosis, 2.5 μM mitoxantrone (Sigma-Aldrich, USA) was administered with B16F10-Ova cells stained with CellTracker Deep Red (Thermo Fisher Scientific, USA) for 4 hours. […]

Assay [6] concerns CT26 cancer cells. The assay can be described thus: CT26 tumor model. In kind it is in vivo, mice. Conditions: fasudil 20 mg/kg; Y27632 10 mg/kg. As for the experimental part: The same procedure as described above was repeated except that CT26 was used instead of the CT26.CL25 colon cancer cell line and fasudil (Selleck Chemicals, USA) at 20 mg/kg of body weight or Y27632 at 10 mg/kg of body weight was administered.

Assay [7] relates to bone marrow-derived dendritic cells (BMDCs). The assay can be described thus: Phagocytosis of cancer cells by bone marrow-derived dendritic cells in vitro. In kind it is cell-based, mice. Conditions: method of Example 1-1; CT26.CL25 and B16F10-Ova. How it is done: as §1, §2, §3, §4, §5, §6
In order to confirm whether the ROCK inhibitor increases phagocytosis against cancer cells by acting on phagocytic cells (BMDMs or BMDCs) themselves, Y27632 was used to pretreat the phagocytic cells or cancer cells for 1 hour, and the phagocytic activity was analyzed using the same procedure described in Example 1-1. […]
Phagocytic activity of bone marrow-derived dendritic cells (BMDCs) differentiated from bone marrow cells against cancer cells was analyzed by treating the BMDCs with ROCK inhibitor Y27632 (30 μM) for 1 hour and then co-cultivating with CT26.CL25 colon cancer cells pretreated with 25 μM of doxorubicin for 24 hours or B16F10-Ova malignant melanoma cells treated with 30 μM of Y27632 for 1 hour and then treated with 2.5 μM doxorubicin (Sigma-Aldrich, USA) for 24 hours by pHrodo SE (Thermo Fisher Scientific, USA) staining (BMDC:Dox-treated B16F10-Ova=1:1). As shown in FIGS. 16A to 16D, it was confirmed that the phagocytic activity of BMDCs induced by doxorubicin were increased in the Y27632-treated group compared to the control group (FIGS. 16A to 16D). […]

[8] abbreviates: doxorubicin 5 mg/kg, Y27632 10 mg/kg.

With `COc1cccc2c1C(=O)c1c(O)c3c(c(O)c1C2=O)C[C@@](O)(C(=O)CO)C[C@@H]3O[C@H]1C[C@H](N)[C@H](O)[C@H](C)O1` [doxorubicin], in assay [1] (setting [8]), the “antigenic cross presentation (H-2Kb-Ova) in the dendritic cells” value was “did not significantly increase”; the “dendritic cell maturation (expression of CD40 and CD86)” value was “no effect”. In addition, the “cross presentation (H-2Kb-Ova) of BMDCs co-cultured with B16F10-Ova cells” value in assay [2] was “increased the cross-presentation”. Moreover, in assay [3], the “complete regression of the tumor” value is recorded as “not observed” and the “infiltration of CD8+ T cells into tumor tissues” value is “slight infiltration”. In addition, in assay [4], the “CD8+ T cells in tumor tissues (infiltration)” value was “some T cell infiltration”.

Regarding `O=S(=O)(c1cccc2cnccc12)N1CCCNCC1` [fasudil], in assay [5] (30 μM, 1 hour, B16F10-Ova treated with 2.5 μM mitoxantrone, compared with control), the “phagocytosis of BMDMs against cancer cells in immunogenic cell death induced by mitoxantrone” value was “significant increase”. Moreover, the “growth of cancer (size of the tumor)” value in assay [6] is “inhibited the growth of cancer similarly to Y27632”.

For `N.N.[Cl][Pt][Cl]` [cisplatin], in assay [1] (cisplatin study), the “cross-presentation function (H-2Kb-Ova) of dendritic cells” value is “no effect”; the “maturation of dendritic cells (CD40 and CD86)” value is given as “no influence”.

As for `Cc1ccc2c(c1)C(=O)C1(O)CCN(c3ccccc3)C1=N2` (stereo not drawn) [blebbistatin], in assay [5] (method of Example 1-1, CT26.CL25 and B16F10-Ova), the “phagocytic action of phagocytic cells against cancer cells (BMDMs)” value was “significantly enhance”. Also, in assay [7], the “phagocytic action of phagocytic cells against cancer cells (BMDCs)” value is on record as “significantly enhance”.
